Experimental data reported in patent US8236985B2, “Compounds and uses thereof” (Imperial Innovations Ltd., priority 2006, dated 2012).
Read-outs that look alike come from different tables or passages of the source.

Columns and labels:
HDAC [1] = conditions: background statement; cited from earlier work
[2] = Intraperitoneal pharmacokinetic studies in vivo; design: species or system mouse; conditions: for Number of UV metabolites: 80 mg/kg i.p.
Experimental: Parent compound and phase I metabolites were separated by HPLC and detected with simultaneous UV and positive ion electrospray mass spectrometry. Metabolites were identified by positive ion electrospray tandem mass spectrometry.
C1-A was introduced at 80 mg/kg in DMSO (0.0015 ml/g; 30 μl) intraperitoneally into the mouse.

[3] = tested on: N-methyl-N-nitrosourea carcinogen-induced rat mammary cancer; conditions: 500 μg/kg/day s.c. for 4 weeks; cited from earlier work
MCF-7 cells = test: Sulforhodamine B (SRB) cell growth inhibition assay; format: cell-based, human; conditions: N=5-6
Experimental: Stock cultures of MCF-7 and MDA-MB-231 human breast cancer cell lines (American Type Culture Collection, Rockville, Md.) are grown in Dulbecco's Modified Eagle's Medium (DMEM) containing 10% (v/v) foetal calf serum, 2 mM L-glutamine, 100 units/ml penicillin and 100 μg/ml streptomycin at 37° C. in 5% CO2 humidified atmosphere. Cells are counted in a haemocytometer after detachment using 0.25% (w/v) trypsin in Dulbecco's Phosphate Buffered Saline without Ca^2+ or Mg^2+ (DPBS) (Sigma-Aldrich, Gillingham, UK) containing 0.02% (w/v) EDTA. Viability is determined by Trypan blue exclusion. For each cell line, cells are seeded in 96-well microtitre plates at optimal densities determined in prior experiments to ensure exponential growth for the duration of the assay. […] After 48 hour incubation, cell proliferation is determined using the sulforhodamine B colorimetric assay described by Skehan et al. (1990) J. Natl. Cancer Inst. 82, 1107-1112. Briefly, 100 μl of ice cold 40% (w/v) trichloroacetic acid is added to each well and incubated for 1 hour at 4° C. The plate is then rinsed gently with five changes of tap water. To each well is then added 100 μl of 0.4% (w/v) sulforhodamine B in 1% (v/v) acetic acid and incubated for 1 hour at room temperature. The plate is then washed five times with 1% (v/v) acetic acid and allowed to air dry overnight. Bound dye is then solubilised by addition of 100 μl of 10 mM Tris base to each well followed by incubation on a vibrating plate shaker for 30 minutes. Absorbance at 492 nm is then measured on a microtitre plate reader and the results expressed as the mean ±SE for 6 replicates as a % of vehicle control (taken as 100%). The concentration of each compound of the invention that inhibits cell proliferation by 50% (IC50) is determined graphically in each case using non-linear regression analysis to fit inhibition data to the appropriate dose-response curve (GraphPad Prism Version 4.0; GraphPad Software Inc., San Diego, Calif.).
Trichostatin A (TSA) was used as control.

[4] = tested on: MCF7 and MDA-MB-435 human mammary tumour xenografts; test: Human mammary tumour xenografts in immunodeficient mice; format: in vivo, mouse; conditions: 20-40 mg/kg/day i.p. for 2 weeks
[5] = cited from earlier work
[6] = tested on: HDAC (HeLa nuclear extract); test: Fluorometric HDAC inhibition assay using the Fluor de Lys assay kit; format: biochemical, human
Experimental: Histone deacetylase inhibition by compounds of the invention is assayed by a commercial fluorescent assay kit (BIOMOL—AK-500). 10 mM stock solutions of compounds of the invention prepared in DMSO are aliquoted and frozen at −20° C. For each assay, a vial of the drug solution is thawed to prepare dilutions of drug in DMSO; the remaining drug is discarded. Working solutions of the assay reagents are prepared according to the manufacturers instructions. For the assay, 10 μl of ×5 concentrations of drug (in triplicate) or HDAC assay buffer is added to 15 μl of dilute HeLa nuclear extract (BIOMOL; D1409) and 25 μl of (2×) Fluor-de-Lys substrate in a micro titre plate (Perkin Elmer # 6005270, Optiplate-96 Black microplate) and thoroughly mixed. […] The reactions are allowed to proceed for 10 min and then stopped by addition of 50 μl of dilute Fluor-de-Lys developer solution. The reaction mixtures are then incubated at room temperature for 15 min and fluorescence is read on a Victor multi-well Fluorescence plate reader at an excitation wavelength of 355 nm and emission wavelength of 460 nm.
To obtain a calibration curve, 50 μl aliquots of deacetylated standards prepared in HDAC assay buffer according to the manufacturer's instructions are mixed with 50 μl of diluted Fluor-de-Lys developer solution and incubated for 10 min at room temperature. The fluorescence is measured as above. A plot of arbitrary fluorescence units (AFU) against deacetylated standard concentration in μM is made. The slope and intercept are determined and used for conversion of inhibitor data AFU into velocity of reaction (V, μM/min). To obtain half-maximal inhibition (EC50), molar concentrations of drug are plotted against V and the EC50 is determined from the sigmoid dose response using the GraphPad Prism software.

HDAC [7] = conditions: HPLC fractions tested in vitro; cited from earlier work
[8] = Pharmacokinetic studies in vivo after intravenous injection; design: species or system mouse; conditions: 80 mg/kg i.v.
Experimental: C1-A at 80 mg/kg in 10% DMSO, 5% Tween 20 and 85% saline was injected i.v. into the mouse. Plasma samples were deproteinated with two volume equivalents of methanol, then 200 μl was analysed by reversed-phase high pressure liquid chromatography (5 μm C18 column and 10 mM ammonium acetate/acetonitrile gradient) with ultraviolet detection at a wavelength of 351 nm. C1-A was detectable in plasma up to 60 min after i.v. injection.

[9] = tested on: HCT116 human colon cancer cells; test: Efficacy in vivo, HCT116 tumour-bearing mice; design: species or system mouse; conditions: 80 mg/ml i.p. daily for 7 days, n=1; for Efficacy in vivo (tumour volume vs vehicle control): HCT116 s.c. tumours
Experimental: The study was carried out at n=1 each for drug- or vehicle-treated mice. HCT116 human colon cancer cells were injected subcutaneously into the back of mice to form tumours.
When the tumours were about ˜125 mm^3, the mice were injected with C1-A at 80 mg/ml or vehicle (10% DMSO, 5% Tween 20 and 85% saline) intraperitoneally daily for 7 days. Tumour sizes were measured every 1-2 days in 3 orthogonal axes by callipers to determine tumour volume.

[10] = tested on: Histone H4 acetylation, pRb and Cyclin D1 in MCF-7 cells; test: Western blots of acetyl-H4, pRb and cyclin D1; format: cell-based, human; conditions: MCF-7 cells treated 24 h; western blot (FIG. 13)
Experimental: MCF-7 cells were treated with drug or vehicle (equivalent concentration of DMSO in growth media) for 24 h. Cells were harvested and homogenised. The respective proteins (acetyl-H4, pRb and cyclin D1) in supernatants of these homogenates were visualised by western blot analysis as previously described (Leyton J. et al., Cancer Res. (2006) 66(15): 7621-9).

[11] = MCF-7 cells, first of two independent assays
[12] = MCF-7 cells, second of two independent assays
[13] = first of two independent assay sets, N=3, read-out: Average EC50
[14] = second of two independent assay sets, N=3, read-out: Average EC50

Compound: CC(/C=C/C(=O)NO)=C\[C@@H](C)C(=O)c1ccc(N(C)C)cc1 [TSA, Trichostatin A]
- Concentrations at which HDAC is inhibited (HDAC [1]): low nanomolar
- Number of UV metabolites ([2]; mice, at 20 minutes (FIG. 17 and Sanderson et al, 2004)): 17
- Metabolism in vivo ([2]; FIG. 17): rapidly metabolised in vivo
- Anti-tumour activity [3]: potent anti-tumour activity
- Toxicity in vivo [3]: without significant toxicity
- EC50 (MCF-7 cells; [11]): 75 nM
- EC50 (MCF-7 cells; [12]): 110 nM
- Anti-tumour activity [4]: anti-tumour activity
- Number of UV metabolites ([5]; TSA, at 20 minutes (Sanderson et al, 2004), quoted in Example 10): 17
- Parent drug remaining ([5]; TSA, at 20 minutes (Sanderson et al, 2004)): almost no parent drug
- Cmax ([5]; plasma, 80 mg/kg i.p., mice): 40000 ng/mL
- Half-life ([5]; plasma, 80 mg/kg i.p., mice): 6.3 min

Compound: Depudecin [reference compound]
- Concentrations at which HDAC is inhibited (HDAC [1]): micromolar
- EC50 ([6]; control, read-out: EC50): > 10000 nM

Compound: CNc1ccc(C(=O)C(C)C=C(C)C=CC(=O)NO)cc1 (centres unmarked) [N-demethylated TSA metabolite, N-demethylated TSA]
- HDAC inhibitory potency relative to TSA (HDAC [7]): equipotent

Compound: CCN(CC)c1ccc(S(=O)(=O)Nc2ccc(/C=C(C)/C=C/C(=O)NO)cc2)cc1 [Example C1-B, (E,E)-4-methyl-5-{4-[4-(diethylamino)phenyl]sulfonamido}penta-2,4-dienoic acid N-hydroxyamide]
- EC50 [6, 13]: 320 nM
- EC50 [6, 14]: 450 nM
- EC50 (MCF-7 cells; Homo sapiens, MCF7, MCF-7 cells, first of two independent assays): 6000 nM
- EC50 (MCF-7 cells; Homo sapiens, MCF7, MCF-7 cells, second of two independent assays): 14000 nM

Compound: (E,E)-4-methyl-5-{4-[4-bis-(2-chloroethylamino)phenyl]-sulfonamido}penta-2,4-dienoic acid N-hydroxyamide [Example C1-A]
- Stability in vivo ([8]; Balb/c mice (FIG. 14)): stable in vivo
- Detection in liver ([8]; mouse): detectable in the liver at all time points
- Time up to which compound was detectable in plasma ([8]; mouse, HPLC-UV): up to 60 min
- Stability in vivo ([2]; 80 mg/kg i.p. in DMSO, mouse, HPLC-UV (FIG. 16)): stable in vivo
- Number of UV metabolites ([2]; mouse, at 60 minutes): 5
- Toxicity based on measurement of body weight [9]: no toxicity was detectable
- Efficacy in vivo (tumour volume vs vehicle control) [9]: Tumour volume was greater in the control than in the C1-A-treated mouse
- Efficacy in vivo (tumour volume vs vehicle control) ([9]; listed as C1A): efficacious in vivo
- Concentration at which pRb & cyclin D are inhibited and H4 hyperacetylation is induced, relative to TSA [10]: ≥ 10 × [TSA]
- EC50 [6, 13]: 590 nM
- EC50 [6, 14]: 310 nM
- EC50 (MCF-7 cells; [11]): 3900 nM
- EC50 (MCF-7 cells; [12]): 6800 nM
